# Test results published in patent US10898548B2, “Modulators of protein tyrosine phosphatase and uses thereof” (LEUVAS THERAPEUTICS, priority 2015, dated 2021).
# Columns and labels:
# [1] = test system: tyrosine phosphatase activity in PMNs; experiment: in vitro phosphatase activity (pNPP) on membranes from human primary PMNs; assay type: biochemical; conditions: PMN membranes, DMSO 0.75
# Method: We first tested the biochemical activity of the fusion peptide by performing in vitro assays of phosphatase activity on purified membranes isolated from human primary monocytes compared to membranes isolated from human primary polymorphonuclear cells (PMNs). Human primary monocytes and polymorphonuclear (PMNs) cells were isolated from whole blood of healthy donors. Purity of monocyte preparation was evaluated by flow cytometry after staining with fluorescein isothiocyanate (FITC)-conjugated anti-CD14 antibody and was more than 95%. Isolated cells were kept at 37° C. in standard adhesion buffer (PBS, 1 mM CaCl2, 1 mM MgCl2, 10% FBS, pH 7.2) and used within 1 h.
# The phosphatase activity in membrane fractions isolated from human monocytes and PMNs was assessed. […] Cells were then sonicated twice (6 sec, 15% W) and centrifuged at 2000 rpm for 10 minutes. The supernatants were collected and centrifuged at 28000 rpm for 60 minutes. After centrifugation, the supernatants were discarded, and the membrane pellets were dissolved in 20 mM tris pH 7.4. Equal amount of membrane fractions were added to pNPP buffer containing 20 mM tris, 10 mM DTT and 2 mM pNPP. Following, DMSO and peptides were added. After 30 minutes of incubation, levels of de-phosphorylation, in presence or absence of orthovanadate, were measured at 405 nm by a plate reader. Values are absorbance at 405 nn shown as percent fold increase over the blank; mean values of three experiments are shown. *p<0.001 vs vehicle (DMSO).
# [2] = in vitro phosphatase assay of TAT-ICD (pNPP); assay type: biochemical; conditions: 50 μM TAT control peptide or 50 μM TAT-ICD; 30 minutes
# Method: Cells were then sonicated twice (6 sec, 15% \N) and centrifuged at 2000 rpm for 10 minutes. The supernatants were collected and centrifuged at 28000 rpm for 60 minutes and then the membrane pellets were dissolved in 20 mM tris pH 7.4. Equal amount of membrane fractions were added to pNPP buffer containing 20 mM tris, 10 mM DTT and 2 mM pNPP. Following, DMSO and 50 μM TAT control peptide or 50 μM TAT-ICD, in presence or absence of 200 μM Na3VO4 were added. After 30 minutes of incubation, levels of de-phosphorylation, in presence or absence of orthovanadate, were measured at 405 nm by a plate reader (Table 5). Shown is % fold increase over the pNPP buffer alone; mean values of 7 experiments in triplicate.
# [3] = test system: normal primary cortical murine neurons; experiment: MTT assay, normal primary cortical neurons; assay type: cell-based, mouse
# Method: Briefly, U251 GBM cells, normal primary cortical murine neurons and a mixed culture of murine microglia and astrocytes were treated for 24, 48 and 72 hours with no treatment (control), delivery peptide (P1 or TAT) or increasing concentrations of P1-WD or TAT-ICD. Cell viability and survival was measured using the MTT assay, a colorimetric assay for assessing cell metabolic activity set up under conditions where the absorption reflects the number of viable cells present (Table 21 and 22) and expressed as relative absorption at 570 nm. Early apoptosis was measured using VYBRANT DyeCycle Violet stain (Molecular Probes), a DNA-selective, cell membrane-permeant dye that can distinguish the compacted state of the nuclear chromatin in apoptotic cells as determined by flow cytometry and presented as the percent of cells that are apoptotic (Table 23 and 24). The actual number of cells following treatment with TAT-ICD or TAT alone (Table 25) was determined using flow cytometry compared to an input of 5,000 cells at time zero. To confirm apoptosis the TUNEL labeling assay, which detects DNA strand breaks in apoptotic cells by fluorescence microscopy, was also used to examine U251 cells treated with the PTPRG WD. Briefly, the assay used an optimized terminal transferase ([…]) to label 3′OH ends in genomic DNA with TMR-dUTP, thus allowing the measurement and quantification of cell death by apoptosis. U251 cells were pretreated for 1, 3 and 6 hours with 50 μM P1-WD. Then cells were fixed and permeabilized, incubated with TUNEL reaction mixture for 1 h at RT, and then stained with DAPI (for nuclei detection) and with Alexa670-Phalloidin (to detect actin in cell membranes). After the staining steps, cells were visualized with a confocal microscope.
# In striking contrast, treatment of normal primary cortical neurons isolated from mouse pups treated with TAT alone or TAT-ICD for 24-72 hours (Table 26) are mean and sd of absorption using the MTT assay as described above.
# [4] = test system: Hbb^th3/+ mice (β-thalassemia model); experiment: hematological parameters and red cell indices in β-thalassemic and wild-type mice; assay type: in vivo, mouse; design: CH (hemoglobin concentration): unit not given here; conditions: TAT-ICD 5 mg/kg i.p. once every other day for 3 weeks
# Method: Wild-type C57BL/6J mice and the mouse model for β-thalassemia (designated as Hbb^th3/+) were used for these studies. Flow cytometric analysis and sorting of mouse bone marrow and spleen precursors were performed using standard protocols using markers for CD44 and TER119 and cell size (forward scatter) to distinguish erythroid precursors at each distinct developmental stage. Forward scatter high-CD44+Ter119+ cells represents total erythroblasts (or erythroid mass in bone marrow or spleen). These erythroblasts can be further analyzed and sorted in subpopulations: population I: pro-erythroblasts; population II: basophilic erythroblasts; population III: polychromatic erythroblasts; population IV: orthochromatic erythroblasts, as described in Matte et al 2015, Antioxid. Redox Signal. 2015 23(16):1284-1297. Population II, III and IV corresponding to basophilic erythroblasts, polychromatic erythroblasts and orthochromatic erythroblasts were sorted from bone marrow as previously described (Matte et al 2015 Antioxid. Redox Signal. 2015 23(16):1284-1297).
# Wild-type and Hbb^3th/+ were treated with TAT-ICD at 5 mg/kg i.p once every other day for 3 weeks. […] Hematological parameters, red blood cell indices and reticulocyte counts were determined using standard procedures. Table 37 summarizes the effect of treatment of WT and HBB mice with TAT-ICD9 on key hematological parameters and red cell indices.
# [5] = 0.25 uM, 24 hours, Control 1116
# [6] = 0.25 uM, 48 hours, Control 1022
substance,measurement,setting,value
"P1-WD: fusion Trojan peptide SEQ ID 3: Penetratin, glycine, PTPRG wedge domain aa 831-856; RQIKIWFQNRRMKWKKGKQFVKHIGELYSNNQHGFSEDFEEVQ (listed as Homo sapiens)","phosphatase activity, absorbance at 405 nm as percent fold increase over the blank",[1]; P1-WD 50 micromolar,5.15%
same,"phosphatase activity, absorbance at 405 nm as percent fold increase over the blank",[1]; P1-WD 100 micromolar,8.54%
same,"phosphatase activity, absorbance at 405 nm as percent fold increase over the blank",[1]; P1-WD 200 micromolar,12.89%
"P1: Penetratin delivery peptide, 16 aa RQIKIWFQNRRMKWKK (SEQ ID 4), control [reference compound]","phosphatase activity, absorbance at 405 nm as percent fold increase over the blank","[1]; control peptide, concentration not given",5.08%
TAT (GRKKRRQRRRPPQ; listed as Homo sapiens) [reference compound],"phosphatase activity, % fold increase over the pNPP buffer alone",[2],191.7%
same,absorbance in the MTT assay,"[3]; 0.1 uM, 24 hours, Control 1116",1150
same,absorbance in the MTT assay,"[3]; 0.1 uM, 48 hours, Control 1022",1151
same,absorbance in the MTT assay,"[3]; 0.1 uM, 72 hours, Control 994",1151
same,absorbance in the MTT assay,[3]; [5],908
same,absorbance in the MTT assay,[3]; [6],955
same,absorbance in the MTT assay,"[3]; 0.25 uM, 72 hours, Control 994",957
same,absorbance in the MTT assay,"[3]; 0.5 uM, 24 hours, Control 1116",1184
same,absorbance in the MTT assay,"[3]; 0.5 uM, 48 hours, Control 1022",1148
same,absorbance in the MTT assay,"[3]; 0.5 uM, 72 hours, Control 994",1224
TAT-ICD: fusion recombinant protein SEQ ID 5: PTPRG intracellular domain aa 797-1445 fused to 13 aa TAT sequence,"phosphatase activity, % fold increase over the pNPP buffer alone",[2],4661.0%
same,absorbance in the MTT assay,"[3]; 0.1 uM, 24 hours, Control 1116",1115
same,absorbance in the MTT assay,"[3]; 0.1 uM, 48 hours, Control 1022",989
same,absorbance in the MTT assay,"[3]; 0.1 uM, 72 hours, Control 994",1074
same,absorbance in the MTT assay,[3]; [5],928
same,absorbance in the MTT assay,[3]; [6],923
same,absorbance in the MTT assay,"[3]; 0.25 uM, 72 hours, Control 994",1204
same,absorbance in the MTT assay,"[3]; 0.5 uM, 24 hours, Control 1116",1164
same,absorbance in the MTT assay,"[3]; 0.5 uM, 48 hours, Control 1022",1109
same,absorbance in the MTT assay,"[3]; 0.5 uM, 72 hours, Control 994",1376
same,CH (hemoglobin concentration),"[4]; Hbb3th/+ mice, n = 4",10.4 ± 0.3
same,CHr (reticulocyte hemoglobin concentration),"[4]; Hbb3th/+ mice, n = 4",12.0 ± 0.39 pg
same,Hb (hemoglobin),"[4]; Hbb3th/+ mice, n = 4",10.1 ± 0.3 g/dL
same,Hct (hematocrit),"[4]; Hbb3th/+ mice, n = 4",34.8 ± 4.9 %
same,MCH (mean corpuscular hemoglobin),"[4]; Hbb3th/+ mice, n = 4",10.2 ± 0.4 pg
same,MCV (mean corpuscular volume),"[4]; Hbb3th/+ mice, n = 4",393 ± 0.9 fL
same,MCVr (mean corpuscular volume reticulocytes),"[4]; Hbb3th/+ mice, n = 4",49.2 ± 1.2 fL
same,Neutrophil,"[4]; Hbb3th/+ mice, n = 4",1407 ± 597 cells/uL
same,RDW (red cell distribution width),"[4]; Hbb3th/+ mice, n = 4",25.7 ± 1.0 %
same,Retics (reticulocytes),"[4]; Hbb3th/+ mice, n = 4",18.2 ± 2.0 %
same,WBC,"[4]; Hbb3th/+ mice, n = 4",9125 ± 1021 cells/uL
same,CH (hemoglobin concentration),"[4]; WT mice, n = 3",13.6 ± 0.2
same,CHr (reticulocyte hemoglobin concentration),"[4]; WT mice, n = 3",14.0 ± 0.1 pg
same,Hb (hemoglobin),"[4]; WT mice, n = 3",14.9 ± 0.4 g/dL
same,Hct (hematocrit),"[4]; WT mice, n = 3",46.3 ± 0.5%
same,MCH (mean corpuscular hemoglobin),"[4]; WT mice, n = 3",15.0 ± 0.7 pg
same,MCV (mean corpuscular volume),"[4]; WT mice, n = 3",50.1 ± 0.1 fL
same,MCVr (mean corpuscular volume reticulocytes),"[4]; WT mice, n = 3",55.0 ± 0.3 fL
same,Neutrophil,"[4]; WT mice, n = 3",1833 ± 461 cells/uL
same,RDW (red cell distribution width),"[4]; WT mice, n = 3",13.6 ± 0.3 %
same,Retics (reticulocytes),"[4]; WT mice, n = 3",4.3 ± 0.5 %
same,WBC,"[4]; WT mice, n = 3",6005 ± 980 cells/uL
